Measurements: PubChem BioAssay AID179 (DTP/NCI, 2004)
Active and inactive are the calls of the source.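 The calls were made as follows: active = compounds giving half or more protection of infected cells from virus-caused growth loss, again on retest; inactive = the rest.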

Test system: CEM cells HIV-1 protection, formazan growth assay
Assay: NCI AIDS Antiviral Assay
Details: for IC50: measured here: growth of uninfected CEM cells
Procedure, shortened: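 Soluble formazan readout of cell growth; CEM cells ± HIV-1; 5 drug concs. ≥50% protection → retest; ≥50% again = moderately active; reproducible 100% = confirmed active.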

| Structure (SMILES) | EC50 [µM] | IC50 [µM] | outcome |
| --- | --- | --- | --- |
| O=C(c1ccco1)N(C(=S)N1CCN(c2ccccn2)CC1)C1CCCCC1 | > 46.8 | 35.5 |  |
| C=C([Si](C)(C)C)[Si](C)(C)C | > 209 | > 209 |  |
| Cc1nc(C)c(C(=O)Nc2cccc3c2C(=O)NC3=O)cc1C(=O)Nc1cccc2c1C(=O)NC2=O | > 195 | > 195 |  |
| O=C1NCCN1/N=C/c1c(Cl)n(-c2ccccc2)c2ccccc12 | > 200 | 16.6 |  |
| C=C[C@H]1C=Cc2c(OC)cccc2[C@@H]1COP1(=S)NC(C)C(c2ccccc2)O1 (stereo partly specified) |  |  | inactive |
| Cc1nc2c(=O)n(C)c(=O)n(C)c2nc1CCC(=O)O | > 200 | > 200 |  |
| CC#N.CC#N.COC(=O)[C@H]1COC(=O)[N-]1.COC(=O)[C@H]1COC(=O)[N-]1.COC(=O)[C@H]1COC(=O)[N-]1.COC(=O)[C@H]1COC(=O)[N-]1.[Rh+2].[Rh+2] | > 200 | > 200 |  |
| Cc1cn(CC2=NCC(C)(C)CN2)c(=O)[nH]c1=O | > 200 | > 200 |  |
| O=S1(=O)c2ccccc2N2CCCc3cc(Cl)cc1c32 | > 200 | > 200 |  |
| O=C(O)CNCCCCCCNCC(=O)O | > 631 | 617 |  |
| CCOC(=O)C1=NNC(C(=O)c2ccccc2)C1c1ccccc1 (stereo unspecified) | > 200 | 2.19 |  |
| CC(C)c1cccc(C(C)C)c1N1C(=O)C(=O)C(c2nc3ccccc3o2)C(=O)C1=O |  |  | inactive |
| CCOP(=O)(OCC)C(C)(C)N(C)/C(F)=N/C(F)(F)F | > 200 | > 200 |  |
| CC(=O)OC1C(CCl)OC(N=[N+]=[N-])C(OC(C)=O)C1OC(C)=O (stereo unspecified) |  |  | inactive |
| OCCC1(O)CCC(O)CC1 (stereo unspecified) |  |  | inactive |
| CC(=O)O[C@H]1CCc2c(cc(N)c3c2C(=O)C[C@]2(C)C([C@H](C)CCCC(C)C)CCC32C)C1(C)C (stereo partly specified) | > 200 | > 200 |  |
| C/C(CC(=O)Nc1ccc(Cl)cc1)=N\NC(=O)C[n+]1ccccc1 | > 49 | > 49 |  |
| N#C/C=C\c1ccc(Cl)cc1 | > 43.7 | > 43.7 |  |

| Structure (SMILES) | EC50 [µM] | IC50 [µM] | outcome |
| --- | --- | --- | --- |
| N=c1oc2ccccc2cc1-c1nc2ccccc2c(=O)[nH]1 |  |  | inactive |
| CC(C)(CN1CCCCC1)C(=O)CC(SCCS(=O)(=O)O)c1ccc(Cl)c(Cl)c1 (stereo unspecified) | > 200 | 1.2 |  |
| NC(=S)N/N=C/c1cn(CCCl)c2ccccc12 | > 25.7 | 15.8 |  |
| CC1CC(C)(C)N=C(C(C)CC2CCCCC2)O1 (stereo unspecified) | > 200 | 21.9 |  |
| CCOC(=O)C1Cc2c(n(C3CCCCC3)c(=O)n(C)c2=O)OC1c1ccccc1 (stereo unspecified) | > 63.1 | 29.5 |  |
| Cc1cc(NC(=S)NNC(=O)Cn2nnc(-c3cccc(Cl)c3Cl)n2)ccc1Br | > 200 | 141 |  |
| Cc1cn(C2CC(O[Si](C)(C)C(C)(C)C)C(CN(OC(=O)Oc3ccccc3)C(=O)Oc3ccccc3)O2)c(=O)[nH]c1=O (stereo unspecified) | > 200 | 10.2 |  |
| COCC1OC2(CCC[C@H]2O)O[C@H]1COC (stereo partly specified) |  |  | inactive |
| Cc1cc(Cl)ccc1NC(=O)/C(=N\NC(C)(C)C)C(C#N)c1nc(-c2ccc([N+](=O)[O-])cc2)cs1 (stereo unspecified) | 2.63 | 10.2 |  |
| CCCCNC(=S)/N=C/c1c(O)c2ccccc2[nH]c1=O | > 200 | > 200 |  |
| COc1cc2c3c(c1)CCCN3CCC2 | > 200 | 13.2 |  |
| COc1ccc2c(c1)C(O)NC(=O)O2 (stereo unspecified) | > 200 | 49 |  |
| CN(C)Cc1cc(N=Nc2ccc(Cl)cc2)ccc1O | > 20 | 13.5 |  |
| CCOC(=O)C1(C(N)=O)C(=O)c2ccncc2C1=O (stereo unspecified) | > 200 | > 200 |  |
| CN(C(=O)C12C3C4C1C1C2C3C41C(=O)C(C)(C)C)C(C)(C)C (stereo unspecified) | > 6.61 | > 6.61 |  |
| O=Nc1c[nH]c(=O)[nH]c1=O | > 200 | > 200 |  |
| O=C(O)CCC(=O)N1c2ccccc2CC1c1c[nH]c2ccccc12 (stereo unspecified) | > 741 | 158 |  |
| O=S(=O)(O)c1cc(N=Nc2ccc(O)c3ccccc23)ccc1/C=C/c1ccc(N=Nc2ccc(O)c3ccccc23)cc1S(=O)(=O)O | 13.5 | 50.1 |  |
